From patent US20240246918A1, “COMPOUNDS AND COMPOSITIONS AS EIF4E INHIBITORS AND THE USES THEREOF” (Ribometrix, Inc., priority 2022, published 2024) come the findings set out here.

In assay [1] the test system is cap-dependent translation in Flp-In-293 reporter cells. Description: Cellular cap-dependent translation inhibition assay (dual luciferase assay, DLA; Fluc/Rluc ratio, 24 hours). It counts as cell-based.
For another assay, the target named is T1, human eIF4E protein (Homo sapiens, UniProt P06730).
T1 construct: purchased Novus NBP-45314
T1 sequence (P06730 whole entry): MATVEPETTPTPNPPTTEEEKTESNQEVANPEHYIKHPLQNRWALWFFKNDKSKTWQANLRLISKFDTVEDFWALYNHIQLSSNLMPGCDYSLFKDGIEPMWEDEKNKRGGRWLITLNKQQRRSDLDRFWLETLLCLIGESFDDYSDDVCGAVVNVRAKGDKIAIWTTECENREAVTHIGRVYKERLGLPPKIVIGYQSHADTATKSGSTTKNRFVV
Description: Biochemical competitive binding assay (TR-FRET competition, EDA-m7GDP-ATTO-647N probe). As to conditions: read-out: hEIF4E TR-FRET IC50. A digest of the protocol: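 IC50 values come from 4-parameter fits of the normalized 665/620 nm TR-FRET ratio. Compound was first incubated 15 min with 4 nM recombinant His-eIF4E bound to 2.5 nM Eu-anti-His antibody, then 15 min with 5 nM m7GDP-ATTO-647N tracer, in pH 7.5 HEPES buffer with 100 mM KCl, Tween-20 and BSA.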
For orientation: In TR-FRET formats the signal depends on donor and acceptor labels being close together.

Assay [2] relates to COLO 205 colorectal tumor cells. Description: Tumor cell viability inhibition assay (CellTiter-Glo 2.0, 72 hours). It counts as cell-based. As to conditions: COLO 205 cell viability. A digest of the protocol: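 IC50 derived by 4-parameter fitting after normalizing luminescence to DMSO and max-inhibition wells. Compounds tested as 11 concentrations in 4-fold steps on COLO 205 cells seeded at 1500 per well in RPMI-1640/10% FBS; ATP content measured with CellTiter-Glo 2.0 after 72 h.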
Background: In ATP-based viability assays light output follows the ATP content of the culture.

The mark [3] stands for this setting: Homo sapiens, Flp-In-293, 24 h, dual luciferase assay, Flp-In-293 reporter cells, 24 hours, Fluc/Rluc ratio, read-out: DLA 205 IC50.
[4] abbreviates: dual luciferase assay, Flp-In-293 reporter cells, 24 hours, Fluc/Rluc ratio, read-out: DLA 205 IC50.

Read-outs that look alike come from different tables or passages of the source.

Take `Cc1cc(-c2cc(Cl)ccc2OCCn2c(C)nc3c(c2=O)CC(N(C)C)CC3)c2scc(C(=O)NS(C)(=O)=O)c2n1` (stereo not drawn) [Compound 39, 7-[5-chloranyl-2-[2-[6-[di(methyl)amino]-2-methyl-4-oxidanylidene-5,6,7,8-tetrahydroquinazolin-3-yl]ethoxy]phenyl]-5-methyl-N-methylsulfonyl-thieno[3,2-b]pyridine-3-carboxamide; 2,2,2-tris(fluorenyl)acetic acid]: the IC50 was less than 1000 nM in assay [1] (setting [3]); less than 100 nM at human eIF4E protein; less than 5000 nM in assay [2] (Homo sapiens, COLO 205, 72 h).
Consider `Cc1cc(-c2cc(Cl)ccc2OCCn2c(C)nc3c(c2=O)CC(N(C2CC2)C2CC2)CC3)c2scc(C(=O)NS(C)(=O)=O)c2n1` (single isomer, unassigned) [Compound 292], for which the IC50 in assay [1] (setting [4]) was 1000 to 5000 nM; at human eIF4E protein, less than 100 nM; in assay [2], 5000 to 20000 nM.
Take `Cc1cc(-c2cc(Cl)ccc2OCCn2c(C)nc3c(c2=O)CC(N(C)CC2CCNCC2)CC3)c2scc(C(=O)NS(C)(=O)=O)c2n1` (single isomer, unassigned) [Compound 289]: the IC50 was 1000 to 5000 nM in assay [1] (setting [3]); less than 100 nM at human eIF4E protein; 5000 to 20000 nM in assay [2] (Homo sapiens, COLO 205, 72 h).
On to `Cc1cc(-c2cc(Cl)ccc2OCCn2c(C)nc3c(c2=O)CC(N2CC(F)(F)C2)CC3)c2sccc2n1` (single isomer, unassigned) [Compound 340], for which the IC50 in assay [1] (setting [3]) is more than 5000 nM; on human eIF4E protein, 500 to 5000 nM; in assay [2] (Homo sapiens, COLO 205, 72 h), more than 20000 nM.
Regarding `Cc1nc2c(c(=O)n1CC#Cc1ccc(Cl)cc1-c1ccnc3c(C(=O)NS(C)(=O)=O)csc13)C[C@H](N1CC[C@@H](F)C1)CC2` (single isomer, unassigned) [Compound 348], the IC50 in assay [1] (setting [3]) is less than 1000 nM; at human eIF4E protein, less than 100 nM; in assay [2] (Homo sapiens, COLO 205, 72 h), less than 5000 nM.
`Cc1cc(-c2cc(Cl)ccc2OCCn2c(C)nc3c(c2=O)C[C@@H](N2CC[C@@H](F)C2)CC3)c2scc(C(=O)O)c2n1` (single isomer, unassigned) [Compound 329]: the IC50 was less than 1000 nM in assay [1] (setting [3]); less than 100 nM at human eIF4E protein; less than 5000 nM in assay [2] (Homo sapiens, COLO 205, 72 h).
As for `Cc1cc(-c2cc(Cl)ccc2OCCn2c(C)nc3c(c2=O)C[C@H](N2CC[C@H](F)C2)CC3)c2scc(C(=O)O)c2n1` (single isomer, unassigned) [Compound 311], the IC50 in assay [1] (setting [3]) was less than 1000 nM; on human eIF4E protein, less than 100 nM; in assay [2] (Homo sapiens, COLO 205, 72 h), less than 5000 nM.
`Cc1cc(-c2cc(Cl)ccc2OCCn2c(C)nc3c(c2=O)CC(N(C)CC2(C)COC2)CC3)c2scc(C(=O)NS(C)(=O)=O)c2n1` (single isomer, unassigned) [Compound 305]: the IC50 in assay [1] (setting [4]) was less than 1000 nM; on human eIF4E protein it was less than 100 nM; in assay [2], less than 5000 nM.
Take `Cc1cc(-c2cc(Cl)ccc2OCCn2c(C)nc3c(c2=O)C[C@H](N2CC[C@@H](F)C2)CC3)c2scc(C(=O)NS(C)(=O)=O)c2n1` (single isomer, unassigned) [Compound 313]: the IC50 in assay [1] (setting [3]) is less than 1000 nM; on human eIF4E protein, less than 100 nM; in assay [2] (Homo sapiens, COLO 205, 72 h), less than 5000 nM.
As for `Cc1cc(-c2cc(Cl)ccc2OCCn2c(C)nc3c(c2=O)C[C@@H](N2CC[C@H](F)C2)CC3)c2scc(C(=O)NS(C)(=O)=O)c2n1` (single isomer, unassigned) [Compound 347], the IC50 in assay [1] (setting [3]) was less than 1000 nM; on human eIF4E protein, less than 100 nM; in assay [2] (Homo sapiens, COLO 205, 72 h), less than 5000 nM.
On the same counts, the results for `Cc1nc2c(c(=O)n1CC#Cc1ccc(Cl)cc1-c1ccnc3c(C(=O)NS(C)(=O)=O)csc13)C[C@@H](N1CC[C@@H](F)C1)CC2` (single isomer, unassigned) [Compound 349] are less than 1000 nM, less than 100 nM and less than 5000 nM.
`Cc1cc(-c2cc(Cl)ccc2OCCn2c(C)nc3c(c2=O)CC(N(CC(F)(F)F)C2CC2)CC3)c2scc(C(=O)NS(C)(=O)=O)c2n1` (single isomer, unassigned) [Compound 309]: the figures for the IC50 (in assay [1] (setting [4]); on human eIF4E protein; in assay [2]) were 1000 to 5000 nM, 100 to 500 nM and 5000 to 20000 nM, respectively.
As for `Cc1cc(-c2cc(Cl)ccc2OCCn2c(C)nc3c(c2=O)CC(N(C)C2(C(F)(F)F)CC2)CC3)c2scc(C(=O)O)c2n1` (stereo not drawn) [Compound 265], the IC50 in assay [1] (setting [3]) is 1000 to 5000 nM; on human eIF4E protein it was 100 to 500 nM; in assay [2] (Homo sapiens, COLO 205, 72 h), more than 20000 nM.
With `Cc1cc(-c2cc(Cl)ccc2OCCn2c(C)nc3c(c2=O)CC(N(C)C2CC2)CC3)c2scc(C(=O)NS(=O)(=O)c3ccccn3)c2n1` (single isomer, unassigned) [Compound 287], the IC50 is 1000 to 5000 nM in assay [1] (setting [4]), less than 100 nM at human eIF4E protein and 5000 to 20000 nM in assay [2].
As for `Cc1cc(-c2cc(Cl)ccc2OCCn2c(C)nc3c(c2=O)C[C@H](N2CCC[C@@H](F)C2)CC3)c2scc(C(=O)O)c2n1` (single isomer, unassigned) [Compound 323], the IC50 in assay [1] (setting [3]) was less than 1000 nM; at human eIF4E protein it was less than 100 nM; in assay [2] (Homo sapiens, COLO 205, 72 h), less than 5000 nM.
On the same counts, the results for `Cc1cc(-c2cc(Cl)ccc2OCCn2c(C)nc3c(c2=O)CC(N(C)Cc2ccncc2)CC3)c2sccc2n1` (stereo not drawn) [Compound 75] are more than 5000 nM, 500 to 5000 nM and 5000 to 20000 nM.
For `CO[C@@H]1CCN([C@H]2CCc3nc(C)n(CCOc4ccc(Cl)cc4-c4cc(C)nc5c(C(=O)O)csc45)c(=O)c3C2)C1` (single isomer, unassigned) [Compound 43] the same measures were less than 1000 nM, less than 100 nM and less than 5000 nM.
As to `Cc1cc(-c2cc(Cl)ccc2OCCn2c(C)nc3c(c2=O)CC(N2CCCCC2)CC3)c2ccc(C(=O)NS(C)(=O)=O)n2n1` (stereo not drawn) [Compound 62, 4-[5-chloranyl-2-[2-[2-methyl-4-oxidanylidene-6-(1-piperidyl)-5,6,7,8-tetrahydroquinazolin-3-yl]ethoxy]phenyl]-2-methyl-N-methylsulfonyl-pyrrolo[1,2-b]pyridazine-7-carboxamide], the IC50 is less than 1000 nM in assay [1] (setting [3]); less than 100 nM on human eIF4E protein; less than 5000 nM in assay [2] (Homo sapiens, COLO 205, 72 h).
On the same counts, the results for `Cc1nc2c(c(=O)n1CCOc1ccc(Cl)cc1-c1ccnn3c(C(=O)O)ccc13)CC(N(C)C)CC2` (stereo not drawn) [Compound 30, 4-[5-chloranyl-2-[2-[6-[di(methyl)amino]-2-methyl-4-oxidanylidene-5,6,7,8-tetrahydroquinazolin-3-yl]ethoxy]phenyl]pyrrolo[1,2-b]pyridazine-7-carboxylic acid] are 1000 to 5000 nM, less than 100 nM and more than 20000 nM.
Take `Cc1cc(-c2cc(Cl)ccc2OCCn2c(C)nc3c(c2=O)CC(N(C)C2CC2)CC3)c2scc(C(=O)NS(=O)(=O)c3ccncc3)c2n1` (single isomer, unassigned) [Compound 285]: the IC50 in assay [1] (setting [4]) is 1000 to 5000 nM; at human eIF4E protein, less than 100 nM; in assay [2], 5000 to 20000 nM.
On the same counts, the results for `Cc1cc(-c2cc(Cl)ccc2OCCn2c(C)nc3c(c2=O)CC(N2CCCCC2)CC3)c2scc(C(=O)O)c2n1` (single isomer, unassigned) [Compound 250] are less than 1000 nM, less than 100 nM and less than 5000 nM.
In the case of `Cc1cc(-c2cc(Cl)ccc2OCCn2c(C)nc3c(c2=O)CC(N2CC4CN(C)CC4C2)CC3)c2scc(C(=O)O)c2n1` (stereo not drawn) [Compound 27], the IC50 is more than 5000 nM in assay [1] (setting [3]); less than 100 nM at human eIF4E protein; more than 20000 nM in assay [2] (Homo sapiens, COLO 205, 72 h).
For the compound `Cc1cc(-c2cc(Cl)ccc2OCCn2c(C)nc3c(c2=O)CC2(CC3)CN(C3CC3)C2)c2scc(C(=O)O)c2n1` [Compound 270, 7-(5-chloro-2-(2-(1-cyclopropyl-2′-methyl-4′-oxo-7′,8′-dihydro-4′H-spiro[azetidine-3,6′-quinazolin]-3′(5′H)-yl)ethoxy)phenyl)-5-methylthieno[3,2-b]pyridine-3-carboxylic acid], the IC50 is less than 1000 nM in assay [1] (setting [3]); less than 100 nM at human eIF4E protein; 5000 to 20000 nM in assay [2] (Homo sapiens, COLO 205, 72 h).
In the case of `COC1CCN(C2CCc3nc(C)n(CCOc4ccc(Cl)cc4-c4cc(C)nc5c(C(=O)O)csc45)c(=O)c3C2)CC1` (stereo not drawn) [Compound 12], the IC50 in assay [1] (setting [3]) was less than 1000 nM; at human eIF4E protein, less than 100 nM; in assay [2] (Homo sapiens, COLO 205, 72 h), less than 5000 nM.
Regarding `CNC1CCc2nc(C)n(CCOc3ccc(Cl)cc3-c3cccc(C(=O)O)c3)c(=O)c2C1` (stereo not drawn) [Compound 2], the IC50 was more than 5000 nM in assay [1] (Homo sapiens, Flp-In-293, 24 h, read-out: DLA 205 IC50, dual luciferase assay, Flp-In-293 reporter cells, 24 hours, Fluc/Rluc ratio); less than 100 nM at human eIF4E protein; less than 5000 nM in assay [2] (Homo sapiens).
For the compound `Cc1cc(-c2cc(Cl)ccc2OCCn2c(C)nc3c(c2=O)CC(N2CCC4(COC4)C2)CC3)c2scc(C(=O)O)c2n1` (stereo not drawn) [Compound 26], the IC50 is less than 1000 nM in assay [1] (setting [3]); less than 100 nM at human eIF4E protein; less than 5000 nM in assay [2] (Homo sapiens, COLO 205, 72 h).
As for `Cc1cc(-c2cc(Cl)ccc2OCCn2c(C)nc3c(c2=O)CC(N(C)C2CC2)CC3)c2sccc2n1` (single isomer, unassigned) [Compound 307], the IC50 was 1000 to 5000 nM in assay [1] (setting [4]), 100 to 500 nM on human eIF4E protein and 5000 to 20000 nM in assay [2].
Regarding `COC(=O)c1csc2c(-c3cc(Cl)ccc3OCCn3c(C)nc4c(c3=O)CC(N(C)C3CC3)CC4)cc(C)nc12` (stereo not drawn) [Compound 358], the IC50 lay within 1000 to 5000 nM in assay [1] (setting [3]); 500 to 5000 nM on human eIF4E protein; 5000 to 20000 nM in assay [2] (Homo sapiens, COLO 205, 72 h).
